Experimental data as given in the CheMixHub viscosity set.

Experiment: xn = mol fraction of the nth substance listed

CCCC#N + CC(C)(C)O
viscosity [mPa·s]
Details | 298.15 K | 303.15 K | 308.15 K | 313.15 K | 318.15 K
101 kPa, x2 = 0.0941 | 0.5487 | 0.5396 | 0.519 | – | –
101 kPa, x2 = 0.1845 | 0.5808 | 0.5686 | 0.5478 | – | –
101 kPa, x2 = 0.2837 | 0.6365 | 0.6123 | 0.5852 | – | –
101 kPa, x2 = 0.3758 | 0.7071 | 0.6764 | 0.6373 | – | –
101 kPa, x2 = 0.4766 | 0.8042 | 0.7523 | 0.6952 | – | –
101 kPa, x2 = 0.5782 | 0.9457 | 0.8545 | 0.7793 | – | –
101 kPa, x2 = 0.6804 | 1.211 | 1.071 | 0.9743 | – | –
101 kPa, x2 = 0.7836 | 1.61 | 1.417 | 1.268 | – | –
101 kPa, x2 = 0.8906 | 2.345 | 2.01 | 1.734 | – | –
101.33 kPa, x2 = 0.0953 | 0.575 | 0.54 | 0.51 | 0.481 | 0.456
101.33 kPa, x2 = 0.1938 | 0.613 | 0.573 | 0.537 | 0.505 | 0.476
101.33 kPa, x2 = 0.2941 | 0.669 | 0.622 | 0.579 | 0.54 | 0.506
101.33 kPa, x2 = 0.3922 | 0.749 | 0.689 | 0.636 | 0.589 | 0.546
101.33 kPa, x2 = 0.4949 | 0.867 | 0.788 | 0.719 | 0.66 | 0.607
101.33 kPa, x2 = 0.591 | 1.03 | 0.923 | 0.834 | 0.753 | 0.685
101.33 kPa, x2 = 0.695 | 1.297 | 1.138 | 1.006 | 0.895 | 0.802
101.33 kPa, x2 = 0.7957 | 1.727 | 1.476 | 1.272 | 1.107 | 0.974
101.33 kPa, x2 = 0.9002 | 2.573 | 2.103 | 1.746 | 1.464 | 1.245

COC(=O)CC(=O)OC + CC(C)=O
303.15 K, 101 kPa
Details | viscosity [mPa·s]
x1 = 0.0666 | 0.4127
x1 = 0.139 | 0.5371
x1 = 0.2164 | 0.6676
x1 = 0.3009 | 0.8036
x1 = 0.392 | 0.9488
x1 = 0.4919 | 1.094
x1 = 0.6008 | 1.258
x1 = 0.7208 | 1.429
x1 = 0.8531 | 1.614

COc1ccccc1O + CC(C)=O
303.15 K, 101 kPa
Details | viscosity [mPa·s]
x2 = 0.1 | 3.67
x2 = 0.2 | 2.95
x2 = 0.3 | 2.35
x2 = 0.4 | 1.82
x2 = 0.5 | 1.26
x2 = 0.6 | 1.03
x2 = 0.7 | 0.755
x2 = 0.8 | 0.573
x2 = 0.9 | 0.44

Brc1ccccc1 + CC(C)CO
viscosity [mPa·s], 101.33 kPa
Details | x1 = 0.1065 | x1 = 0.1936 | x1 = 0.2949 | x1 = 0.4015 | x1 = 0.5016 | x1 = 0.6014 | x1 = 0.7006 | x1 = 0.7967 | x1 = 0.8995
298.15 K | 2.649 | 2.205 | 1.831 | 1.532 | 1.36 | 1.231 | 1.144 | 1.088 | 1.055
313.15 K | 1.727 | 1.483 | 1.28 | 1.116 | 1.022 | 0.9534 | 0.9062 | 0.8769 | 0.8637

CCCC#N + CC(C)CO
viscosity [mPa·s], 101.33 kPa
Details | x2 = 0.0997 | x2 = 0.2 | x2 = 0.2986 | x2 = 0.3982 | x2 = 0.4962 | x2 = 0.5918 | x2 = 0.7022 | x2 = 0.8004 | x2 = 0.8991
298.15 K | 0.582 | 0.626 | 0.69 | 0.778 | 0.895 | 1.051 | 1.315 | 1.672 | 2.273
308.15 K | 0.516 | 0.551 | 0.6 | 0.667 | 0.756 | 0.874 | 1.069 | 1.323 | 1.742
318.15 K | 0.462 | 0.489 | 0.528 | 0.58 | 0.648 | 0.737 | 0.881 | 1.066 | 1.363

C1=C[C@H]2[C@@H](C1)[C@H]1C=C[C@@H]2C1 + CC(C)O
viscosity [mPa·s], 101.2 kPa
Details | x1 = 0.1015 | x1 = 0.1993 | x1 = 0.2999 | x1 = 0.4006 | x1 = 0.4998 | x1 = 0.5999 | x1 = 0.6977 | x1 = 0.7999 | x1 = 0.8995
293.15 K | 2.227 | 2.228 | 2.271 | 2.356 | 2.481 | 2.69 | 2.944 | 3.291 | 3.718
303.15 K | 1.69 | 1.7 | 1.737 | 1.811 | 1.918 | 2.09 | 2.314 | 2.581 | 2.919
313.15 K | 1.303 | 1.322 | 1.363 | 1.435 | 1.535 | 1.689 | 1.869 | 2.109 | 2.394

C1COCCO1 + CC(C)O
viscosity [mPa·s]
Details | 298.15 K | 303.15 K | 308.15 K | 313.15 K
101 kPa, x1 = 0.4 | 1.078 | – | – | –
101 kPa, x2 = 0.1382 | – | 0.9888 | 0.9165 | –
101 kPa, x2 = 0.2768 | – | 0.9414 | 0.8803 | –
101 kPa, x2 = 0.3911 | – | 0.9353 | 0.8656 | –
101 kPa, x2 = 0.4934 | – | 0.9403 | 0.8625 | –
101 kPa, x2 = 0.5928 | – | 0.9543 | 0.8778 | –
101 kPa, x2 = 0.6977 | – | 1.014 | 0.9221 | –
101 kPa, x2 = 0.7841 | – | 1.112 | 1.012 | –
101 kPa, x2 = 0.8535 | – | 1.259 | 1.128 | –
101 kPa, x2 = 0.929 | – | 1.47 | 1.308 | –
101.3 kPa, x1 = 0.038 | 1.821 | 1.578 | 1.38 | 1.218
101.3 kPa, x1 = 0.1103 | 1.479 | 1.312 | 1.17 | 1.039
101.3 kPa, x1 = 0.213 | 1.224 | 1.099 | 0.9913 | 0.8984
101.3 kPa, x1 = 0.3316 | 1.075 | 0.9775 | 0.887 | 0.8129
101.3 kPa, x1 = 0.3634 | 1.055 | 0.9613 | 0.8738 | 0.8044
101.3 kPa, x1 = 0.4318 | 1.014 | 0.9242 | 0.8492 | 0.7791
101.3 kPa, x1 = 0.5184 | 0.9926 | 0.91 | 0.835 | 0.7724
101.3 kPa, x1 = 0.6312 | 0.9873 | 0.9117 | 0.837 | 0.7769
101.3 kPa, x1 = 0.6592 | 0.9898 | 0.9161 | 0.8392 | 0.778
101.3 kPa, x1 = 0.787 | 1.048 | 0.9473 | 0.8747 | 0.8157
101.3 kPa, x1 = 0.891 | 1.101 | 1.01 | 0.9326 | 0.8715
101.3 kPa, x1 = 0.935 | 1.131 | 1.048 | 0.9724 | 0.8943

C[N+](C)(C)CC(=O)[O-] + CC(O)C(=O)O
viscosity [mPa·s]
Details | 293.15 K | 298.15 K | 303.15 K | 308.15 K | 313.15 K | 318.15 K | 323.15 K
100 kPa, x2 = 0.667 | – | 1266 | 818.6 | 544.6 | 374.6 | 260.5 | 190.2
100 kPa, x2 = 0.833 | 386.6 | 245.3 | 167.7 | 120.4 | 86.1 | 65.5 | 50.6
101 kPa, x1 = 0.5 | – | 17780 | – | – | – | 6043 | –

Brc1ccccc1 + CCC(C)=O
303.15 K, 101 kPa
Details | viscosity [mPa·s]
x2 = 0.1487 | 0.899
x2 = 0.2073 | 0.858
x2 = 0.3888 | 0.74
x2 = 0.5263 | 0.656
x2 = 0.7046 | 0.556
x2 = 0.8307 | 0.486

CC(C)N + CCC(C)=O
298.15 K, 101 kPa
Details | viscosity [mPa·s]
x2 = 0.0835 | 0.288
x2 = 0.1701 | 0.3
x2 = 0.26 | 0.314
x2 = 0.3534 | 0.33
x2 = 0.4505 | 0.345
x2 = 0.5515 | 0.358
x2 = 0.6567 | 0.37
x2 = 0.7663 | 0.371
x2 = 0.8806 | 0.372

C1COCCO1 + CCC(C)O
298.15 K, 101 kPa
Details | viscosity [mPa·s]
x1 = 0.0413 | 2.47
x1 = 0.1256 | 1.88
x1 = 0.236 | 1.474
x1 = 0.3042 | 1.324
x1 = 0.4175 | 1.173
x1 = 0.5 | 1.133
x1 = 0.5207 | 1.092
x1 = 0.5916 | 1.061
x1 = 0.7413 | 1.046
x1 = 0.8431 | 1.071
x1 = 0.9423 | 1.119

CCCC#N + CCC(C)O
viscosity [mPa·s], 101.33 kPa
Details | x2 = 0.1016 | x2 = 0.1946 | x2 = 0.2965 | x2 = 0.3938 | x2 = 0.4949 | x2 = 0.5951 | x2 = 0.6966 | x2 = 0.7945 | x2 = 0.8999
298.15 K | 0.572 | 0.605 | 0.652 | 0.717 | 0.811 | 0.945 | 1.141 | 1.435 | 1.982
308.15 K | 0.508 | 0.532 | 0.567 | 0.616 | 0.685 | 0.782 | 0.921 | 1.123 | 1.478
318.15 K | 0.454 | 0.472 | 0.499 | 0.536 | 0.59 | 0.658 | 0.758 | 0.898 | 1.135

C1COCCO1 + CCCCCC
101 kPa
Details | viscosity [mPa·s]
303.15 K, x1 = 0.111 | 0.297
303.15 K, x1 = 0.1961 | 0.317
303.15 K, x1 = 0.3001 | 0.348
303.15 K, x1 = 0.4033 | 0.389
303.15 K, x1 = 0.4962 | 0.436
303.15 K, x1 = 0.5966 | 0.498
303.15 K, x1 = 0.7169 | 0.601
303.15 K, x1 = 0.8008 | 0.7
303.15 K, x1 = 0.8988 | 0.854
308.15 K, x1 = 0.1153 | 0.301
308.15 K, x1 = 0.2223 | 0.338
308.15 K, x1 = 0.3421 | 0.388
308.15 K, x1 = 0.4004 | 0.415
308.15 K, x1 = 0.5204 | 0.481
308.15 K, x1 = 0.7211 | 0.644
308.15 K, x1 = 0.8214 | 0.75
308.15 K, x1 = 0.9211 | 0.879
313.15 K, x1 = 0.1153 | 0.287
313.15 K, x1 = 0.2223 | 0.321
313.15 K, x1 = 0.3421 | 0.367
313.15 K, x1 = 0.4004 | 0.391
313.15 K, x1 = 0.5204 | 0.454
313.15 K, x1 = 0.6232 | 0.521
313.15 K, x1 = 0.7211 | 0.603
313.15 K, x1 = 0.8214 | 0.704
313.15 K, x1 = 0.9211 | 0.824
318.15 K, x1 = 0.1153 | 0.275
318.15 K, x1 = 0.2223 | 0.307
318.15 K, x1 = 0.3421 | 0.349
318.15 K, x1 = 0.4004 | 0.373
318.15 K, x1 = 0.5204 | 0.431
318.15 K, x1 = 0.6232 | 0.494
318.15 K, x1 = 0.7211 | 0.568
318.15 K, x1 = 0.8214 | 0.659
318.15 K, x1 = 0.9211 | 0.769
